What was measured:
Format in all cases: in vivo
Parameters in all cases: key: 5=total damage to plant; 0=no damage to plant
Setaria faberi [1] = assay: Post-emergence herbicidal activity, SETFA; settings: 1000 g/Ha, sprayed post-emergence (8 days cultivation), evaluated after 13 days, scale 0-5
Description: (§1) Seeds of a variety of test species were sown in standard soil in pots. After 8 days cultivation (post-emergence) under controlled conditions in a glasshouse (at 24/16° C., day/night; 14 hours light; 65% humidity), the plants were sprayed with an aqueous spray solution derived from the formulation of the technical active ingredient in acetone/water (50:50) solution containing 0.5% Tween 20 (polyoxyethelyene sorbitan monolaurate, CAS RN 9005-64-5). The test plants were then grown in a glasshouse under controlled conditions (at 24/16° C., day/night; 14 hours light; 65% humidity) and watered twice daily. After 13 days, the test was evaluated (5=total damage to plant; 0=no damage to plant).

Setaria faberi [2] = assay: Pre-emergence herbicidal activity, SETFA; settings: 1000 g/Ha, sprayed pre-emergence, evaluated after 13 days, scale 0-5
Description: as §1, with “After” for “After 8 days”, “for one day (pre-emergence)” for “(post-emergence)”

Amaranthus retroflexus [3] = assay: Pre-emergence herbicidal activity, AMARE; settings: 1000 g/Ha, sprayed pre-emergence, evaluated after 13 days, scale 0-5
Description: as §1, with “After” for “After 8 days”, “for one day (pre-emergence)” for “(post-emergence)”

Zea mays [4] = assay: Pre-emergence herbicidal activity, ZEAMX; settings: 1000 g/Ha, sprayed pre-emergence, evaluated after 13 days, scale 0-5
Description: as §1, with “After” for “After 8 days”, “for one day (pre-emergence)” for “(post-emergence)”

Echinochloa crus-galli [5] = assay: Pre-emergence herbicidal activity, ECHCG; settings: 1000 g/Ha, sprayed pre-emergence, evaluated after 13 days, scale 0-5
Description: as §1, with “After” for “After 8 days”, “for one day (pre-emergence)” for “(post-emergence)”

Alopecurus myosuroides [6] = assay: Pre-emergence herbicidal activity, ALOMY; settings: 1000 g/Ha, sprayed pre-emergence, evaluated after 13 days, scale 0-5
Description: as §1, with “After” for “After 8 days”, “for one day (pre-emergence)” for “(post-emergence)”

Abutilon theophrasti [7] = assay: Pre-emergence herbicidal activity, ABUTH; settings: 1000 g/Ha, sprayed pre-emergence, evaluated after 13 days, scale 0-5
Description: as §1, with “After” for “After 8 days”, “for one day (pre-emergence)” for “(post-emergence)”

Zea mays [8] = assay: Post-emergence herbicidal activity, ZEAMX; settings: 1000 g/Ha, sprayed post-emergence (8 days cultivation), evaluated after 13 days, scale 0-5
Description: as §1

Alopecurus myosuroides [9] = assay: Post-emergence herbicidal activity, ALOMY; settings: 1000 g/Ha, sprayed post-emergence (8 days cultivation), evaluated after 13 days, scale 0-5
Description: as §1

Abutilon theophrasti [10] = assay: Post-emergence herbicidal activity, ABUTH; settings: 1000 g/Ha, sprayed post-emergence (8 days cultivation), evaluated after 13 days, scale 0-5
Description: as §1

Echinochloa crus-galli [11] = assay: Post-emergence herbicidal activity, ECHCG; settings: 1000 g/Ha, sprayed post-emergence (8 days cultivation), evaluated after 13 days, scale 0-5
Description: as §1

Amaranthus retroflexus [12] = assay: Post-emergence herbicidal activity, AMARE; settings: 1000 g/Ha, sprayed post-emergence (8 days cultivation), evaluated after 13 days, scale 0-5
Description: as §1

| SMILES | SETFA damage score, application post-emergence (Setaria faberi [1]) | SETFA damage score, application pre-emergence (Setaria faberi [2]) | AMARE damage score, application pre-emergence (Amaranthus retroflexus [3]) | ZEAMX damage score, application pre-emergence (Zea mays [4]) | ECHCG damage score, application pre-emergence (Echinochloa crus-galli [5]) | ALOMY damage score, application pre-emergence (Alopecurus myosuroides [6]) | ABUTH damage score, application pre-emergence (Abutilon theophrasti [7]) | ZEAMX damage score, application post-emergence (Zea mays [8]) | ALOMY damage score, application post-emergence (Alopecurus myosuroides [9]) | ABUTH damage score, application post-emergence (Abutilon theophrasti [10]) | ECHCG damage score, application post-emergence (Echinochloa crus-galli [11]) | AMARE damage score, application post-emergence (Amaranthus retroflexus [12]) |
| --- | --- | --- | --- | --- | --- | --- | --- | --- | --- | --- | --- | --- |
| CC1C(O)N(c2cc(C(C)(C)F)ncn2)C(=O)N1C (stereo not shown) [Example A20] | 5 | 5 | 5 | 4 | 4 | 3 | 5 | 4 | 4 | 5 | 5 | 5 |
| CCOC1C(O)N(c2cc(C(C)(C)C#N)ncn2)C(=O)N1C (stereo not shown) [Example A18] | 5 | 4 | 5 | 2 | 3 | 1 | 5 | 5 | 4 | 5 | 5 | 5 |
| CCOC1C(O)N(c2cc(C(C)(C)C)ncn2)C(=O)N1CC (stereo not shown) [Example A27] | 3 | 0 | 1 | 0 | 0 | 0 | 1 | 2 | 1 | 4 | 0 | 0 |
| CN1C(=O)N(c2cc(C(C)(C)C)ncn2)C(O)C1CC(F)(F)F (stereo not shown) [Example A34] | 3 | 2 | 5 | 0 | 1 | 1 | 4 | 2 | 3 | 5 | 0 | 2 |
| CCO[C@@H]1C(O)N(c2cc(C(C)(C)F)ncn2)C(=O)N1C (stereo partly shown) [Example A38] | 5 | 5 | 5 | 2 | 5 |  | 5 | 5 |  | 5 | 5 | 5 |
| CCN1C(=O)N(c2cc(C(C)(C)C)ncn2)C(O)C1OC (stereo not shown) [Example A26] | 2 | 0 | 1 | 1 | 0 | 0 | 2 | 1 | 1 | 1 | 0 | 0 |
| CN1CC(O)N(c2cc(C(C)(C)C)ncn2)C1=O (stereo not shown) [Example A1, 3-(6-tert-butylpyrimidin-4-yl)-4-hydroxy-1-methyl-imidazolidin-2-one] | 5 | 5 | 5 | 4 | 5 | 4 | 5 | 5 | 5 | 5 | 5 | 5 |
| CN1CC(O)N(c2cc(C(C)(C)CCl)ncn2)C1=O (stereo not shown) [Example A40] | 5 | 5 | 5 | 2 | 5 |  | 5 | 5 |  | 5 | 5 | 5 |
| CON1C(=O)N(c2cc(C(C)(C)C)ncn2)C(O)C1C (stereo not shown) [Example A6, 1-(6-tert-butylpyrimidin-4-yl)-5-hydroxy-3-methoxy-4-methyl-imidazolidin-2-one] | 5 | 5 | 5 |  | 5 | 4 |  | 5 | 5 | 5 | 5 | 5 |
| CC1C(OC(=O)Nc2ccc([N+](=O)[O-])cc2)N(c2cc(C(C)(C)C)ncn2)C(=O)N1C (stereo not shown) [Example A36] | 5 | 4 | 5 | 3 | 4 | 4 | 5 | 5 | 5 | 5 | 5 | 5 |
| CN1CC(O)N(c2cc(C(F)(F)Cl)ncn2)C1=O (stereo not shown) [Example A39] | 5 | 5 | 5 | 2 | 5 |  | 5 | 5 |  | 5 | 5 | 5 |
